# Experimental data: patent publication US11414387B2, “Oxoacridinyl acetic acid derivatives and methods of use” (Stingthera, Inc., priority 2017, dated 2022)
# Key:
# mSTING-R232 = mSTING-R232 (Mus musculus, UniProt Q3TBT3); experiment: STING differential scanning fluorimetry (DSF) assay, mouse STING; conditions: net shift in melting temperature
# mSTING = mSTING (Mus musculus, UniProt Q3TBT3); experiment: Radiometric filtration binding competition assay, mSTING
# STING protein = STING protein (Homo sapiens (Human), UniProt Q86WV6, H232R); experiment: Cell based reporter assay of IRF activation (IRF-luciferase), THP1-dual-KI R232; conditions: read-out: THP1-dual-KI R232_IRF(Luciferase)_Activity Maximum measured (%)
# Description: Briefly, THP-1 monocytes were transfected and selected for stable integration of 2 reporter constructs. Clones incorporating stably integrated vectors were further selected by antibiotic resistance to blastocidin and zeocin. The reporter constructs included: (1) firefly luciferase reporter gene under the control of an ISG54 promoter fused to five interferon (IFN)-stimulated response elements to measure IRF transcription factor binding activity and (2) secreted embryonic alkaline phosphatase reporter gene under transcription control of an IFN-beta minimal promoter fused to 5 copies of the NFkB consensus transcriptional response element and 3 copies of the c-Rel binding site.
# The resulting THP-1 cell line was further modified to incorporate 3 amino acid point mutations (H71R A230G Q293R). This modification of the native TMEM173 gene in THP-1 cells (HAQ) was designed to produce a cell reporter that expressed the most common allelic variant in the human population (THP-1 R232, available from InvivoGen). Alternatively, the TMEM173 gene was knocked out to provide a congenic control to counter-screen for compound activation that was independent of the STING protein (THP-1 STING KO).
# Once cell lines were established, reporter assay protocols were developed and optimized to screen small molecule compounds for agonist activity. Assay optimization for efficacy and Z′ value included titration of the following parameters:
# • 1. Cell pre-activation with PMA • 2. Cell seeding density • 3. DMSO tolerance • 4. Media selection • 5. FBS concentration • 6. Incubation time • 7. Co-Assessment of cell viability by CTG assay • 8. Appropriate HPE and ZPE controls • 9. Dose Response Titration Final Assay SOP Conditions • 1. No pre-activation with PMA • 2. 5×10^4 cells/well in 96 well plate format • 3. <0.5% DMSO • 4. […] 10% FBS • 6. 14-18 hr incubation • 7. Cell Titer Glo reagent (Promega) following supernatant removal • 8.
# hSTING-WT = hSTING-WT (Homo sapiens (Human), UniProt Q86WV6, H232R); experiment: Radiometric filtration binding competition assay, hSTING-WT
# hSTING-R232 = hSTING-R232 (Homo sapiens (Human), UniProt Q86WV6, H232R); experiment: STING differential scanning fluorimetry (DSF) assay, WT human STING; conditions: WT (R232) human STING aa140-379, net shift in melting temperature
# hSTING-R232, sequence (Q86WV6 140-379 H232R): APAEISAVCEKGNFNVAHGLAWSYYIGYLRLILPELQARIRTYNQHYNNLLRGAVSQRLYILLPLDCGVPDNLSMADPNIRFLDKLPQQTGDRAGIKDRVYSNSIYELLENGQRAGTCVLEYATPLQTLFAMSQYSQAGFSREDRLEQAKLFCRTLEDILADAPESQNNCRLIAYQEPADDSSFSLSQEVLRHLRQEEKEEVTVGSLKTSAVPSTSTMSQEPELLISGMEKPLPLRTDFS
# Protocol: A STING DSF assay was performed to determine protein thermostability shift in response to small molecule ligand binding. A STING thermostability shift assay based on differential scanning fluorimetry was used to measure (1) the net shift in melting temperature (ΔTm)between the apo and ligand-bound states of the STING protein and (2) the concentration of the thermal denaturation transition (EC50) as a surrogate measure of binding affinity (K). […] Protein in assay buffer was transferred to a 384 well plate and incubated with the hydrophobic fluorescent dye SYBR Orange. A temperature ramp was applied to the plate and the resulting dye fluorescence was plotted as a function of temperature. The first derivative of this function (dF/dT) was then used to extrapolate the melting temperature of the protein at various concentrations of compound and determine the thermal denaturation profile of a protein/compound complex.
# • 1. Protein construct (affinity tag removal vs SUMO-fusion construct) • 2. Protein concentration • 3. Dye concentration • 4. Buffer • 5. Thermal ramp velocity • 6. DMSO tolerance • 7. Compound titration parameters • 8. […] 5 μM purified Target STING Protein • 3. 8 μM Sypro Orange Dye • 4. Buffer: 100 mM NaCl, 30 mM HEPES, pH 7.5 • 5. Thermal Ramp: 0.5° C./min • 6. <1% DMSO • 7. 11 point, 2 fold dilution, duplicate, 300 μM high concentrations • 8.
# hSTING-WT, sequence (Q86WV6 140-379 H232R): as above
# STING protein, sequence (Q86WV6 whole entry H232R): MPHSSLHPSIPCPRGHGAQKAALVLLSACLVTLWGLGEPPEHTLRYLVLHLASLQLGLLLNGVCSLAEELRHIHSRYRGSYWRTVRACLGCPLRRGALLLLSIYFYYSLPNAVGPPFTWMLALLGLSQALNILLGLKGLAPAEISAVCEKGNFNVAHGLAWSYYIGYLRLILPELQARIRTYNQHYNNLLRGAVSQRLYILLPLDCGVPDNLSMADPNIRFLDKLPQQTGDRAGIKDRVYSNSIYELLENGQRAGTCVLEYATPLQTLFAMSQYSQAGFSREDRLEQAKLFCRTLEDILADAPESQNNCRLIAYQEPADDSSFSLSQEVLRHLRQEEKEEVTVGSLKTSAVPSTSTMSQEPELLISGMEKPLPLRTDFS
MOUSE DSF_6xHIS-SUMO Tm Shift (° C.) (mSTING-R232),IC50 (mSTING) [µM],Emax (STING protein) [%],IC50 (hSTING-WT) [µM],WT_DSF_hSWAT Tm Shift (° C.) (hSTING-R232),SMILES
D (“D” > 15° C.),< 20,> 50,< 20,D (“D” > 7° C.),COc1c(Cl)ccc2c(=O)c3ccc(Nc4cccc5ccccc45)cc3n(CC(=O)O)c12 [Compound 297]
D (“D” > 15° C.),< 20,> 50,20 to 100,D (“D” > 7° C.),COc1ccccc1Nc1ccc2c(=O)c3ccc(Cl)c(OC)c3n(CC(=O)O)c2c1 [Compound 298]
C (“C” = 5-15° C.),< 20,> 50,< 20,D (“D” > 7° C.),CC(C)c1ccc2c(=O)c3ccc(Cl)c(-c4ccccc4)c3n(CC(=O)O)c2c1 [Compound 289]
D (“D” > 15° C.),< 20,> 50,20 to 100,D (“D” > 7° C.),COc1c(Cl)ccc2c(=O)c3ccc(SC)cc3n(CC(=O)O)c12 [Compound 234]
D (“D” > 15° C.),< 20,> 50,< 20,D (“D” > 7° C.),COc1c(Cl)ccc2c(=O)c3ccc(NC4CCC4)cc3n(CC(=O)O)c12 [Compound 292]
C (“C” = 5-15° C.),20 to 100,> 50,20 to 100,D (“D” > 7° C.),CSc1c(Cl)ccc2c(=O)c3ccc(Br)cc3n(CC(=O)O)c12 [Compound 309]
B (“B” = 0-5° C.),> 300,5 to 25,100 to 300,"C (“C” = 2-7° C,)",COc1cc2c(=O)c3ccc(Cl)c(OC)c3n(CC(=O)O)c2cc1C(C)C [Compound 318]
C (“C” = 5-15° C.),> 300,< 5,> 300,"C (“C” = 2-7° C,)",CC(C)c1ccc2c(=O)c3ccc(Cl)c(OC[C@@H](C)O)c3n(CC(=O)O)c2c1 [Compound 327]
C (“C” = 5-15° C.),100 to 300,5 to 25,> 300,"C (“C” = 2-7° C,)",O=C(O)Cn1c2ccccc2c(=O)c2ccc(Br)c(Br)c21 [Compound 108]
D (“D” > 15° C.),< 20,> 50,< 20,D (“D” > 7° C.),COc1c(Cl)ccc2c(=O)c3ccc(Nc4ccc(F)cc4)cc3n(CC(=O)O)c12 [Compound 250]
D (“D” > 15° C.),< 20,> 50,< 20,D (“D” > 7° C.),CCOc1c(Cl)ccc2c(=O)c3ccc(C(C)C)cc3n(CC(=O)O)c12 [Compound 288]
D (“D” > 15° C.),< 20,< 5,20 to 100,D (“D” > 7° C.),COc1c(Cl)ccc2c(=O)c3ccc(Nc4cnccn4)cc3n(CC(=O)O)c12 [Compound 263]
D (“D” > 15° C.),< 20,> 50,< 20,D (“D” > 7° C.),CCOc1c(Cl)ccc2c(=O)c3ccc(CC)cc3n(CC(=O)O)c12 [Compound 306]
C (“C” = 5-15° C.),20 to 100,> 50,100 to 300,D (“D” > 7° C.),CCOc1c(Cl)ccc2c(=O)c3ccccc3n(CC(=O)O)c12 [Compound 244]
B (“B” = 0-5° C.),> 300,< 5,> 300,B (“B” = 0-2° C.),COCCOc1c(Cl)ccc2c(=O)c3ccccc3n(CC(=O)O)c12 [Compound 330]
D (“D” > 15° C.),< 20,< 5,< 20,D (“D” > 7° C.),CSc1c(Cl)ccc2c(=O)c3ccc(Nc4cnccn4)cc3n(CC(=O)O)c12 [Compound 291]
D (“D” > 15° C.),< 20,< 5,20 to 100,D (“D” > 7° C.),CS(=O)(=O)Nc1cccc(Nc2ccc3c(=O)c4ccc(Cl)c(Cl)c4n(CC(=O)O)c3c2)c1 [Compound 257]
C (“C” = 5-15° C.),20 to 100,5 to 25,20 to 100,"C (“C” = 2-7° C,)",O=C(O)Cn1c2cc(-c3cccc(F)c3)ccc2c(=O)c2ccc(Cl)c(Cl)c21 [Compound 152]
C (“C” = 5-15° C.),20 to 100,> 50,20 to 100,D (“D” > 7° C.),CCc1ccc2c(=O)c3ccc(Cl)c(OC)c3n(CC(=O)O)c2c1 [Compound 294]
D (“D” > 15° C.),< 20,> 50,< 20,D (“D” > 7° C.),COc1c(Cl)ccc2c(=O)c3ccc(-c4cccc(O)c4)cc3n(CC(=O)O)c12 [Compound 270]
C (“C” = 5-15° C.),< 20,> 50,20 to 100,D (“D” > 7° C.),C=CCOc1c(Cl)ccc2c(=O)c3ccc(C)cc3n(CC(=O)O)c12 [Compound 311]
D (“D” > 15° C.),< 20,< 5,< 20,D (“D” > 7° C.),C[C@@H](O)COc1c(Cl)ccc2c(=O)c3ccccc3n(CC(=O)O)c12 [Compound 323]
C (“C” = 5-15° C.),> 300,< 5,> 300,B (“B” = 0-2° C.),O=C(O)Cn1c2ccccc2c(=O)c2ccc(Cl)c(OCCCO)c21 [Compound 329]
D (“D” > 15° C.),20 to 100,> 50,20 to 100,D (“D” > 7° C.),CCN(C)c1c(Cl)ccc2c(=O)c3ccc(C)cc3n(CC(=O)O)c12 [Compound 307]
A (“A” < 0° C.),> 300,5 to 25,100 to 300,A (“A” < 0° C.),CN(Cc1ccccc1)c1c(Cl)ccc2c(=O)c3ccccc3n(CC(=O)O)c12 [Compound 310]
D (“D” > 15° C.),< 20,> 50,< 20,D (“D” > 7° C.),COc1c(Cl)ccc2c(=O)c3ccc(-c4ccc(O)cc4)cc3n(CC(=O)O)c12 [Compound 269]
D (“D” > 15° C.),< 20,> 50,20 to 100,D (“D” > 7° C.),COc1c(Cl)ccc2c(=O)c3ccc(C(C)(C)C)cc3n(CC(=O)NS(C)(=O)=O)c12 [Compound 262]
